Experimental findings from PMC3265452 (PLoS Neglected Tropical Diseases, 2012) are described below.

Where a name gives a salt, the structure may show the parent alone.

Sequence of AaDOP2 (H6D5H2 1-476): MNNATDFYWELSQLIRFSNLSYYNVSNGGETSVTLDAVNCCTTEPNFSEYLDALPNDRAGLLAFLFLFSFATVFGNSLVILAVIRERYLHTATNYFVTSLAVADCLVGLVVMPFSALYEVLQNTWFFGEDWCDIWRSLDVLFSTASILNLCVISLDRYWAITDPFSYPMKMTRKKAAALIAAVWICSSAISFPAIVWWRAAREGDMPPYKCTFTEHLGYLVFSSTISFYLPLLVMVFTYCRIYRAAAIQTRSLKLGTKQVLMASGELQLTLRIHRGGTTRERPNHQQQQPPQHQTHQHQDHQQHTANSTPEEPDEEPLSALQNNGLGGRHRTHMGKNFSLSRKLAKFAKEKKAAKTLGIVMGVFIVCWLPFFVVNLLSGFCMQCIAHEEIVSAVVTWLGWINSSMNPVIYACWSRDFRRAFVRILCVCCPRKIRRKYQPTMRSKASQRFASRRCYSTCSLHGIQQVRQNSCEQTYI

The first assay has as its target AaDOP2 (Aedes aegypti, UniProt H6D5H2). In words: AaDOP2 antagonist screen of the LOPAC1280 library (HEK-CRELuc-Aadop2 cells, luminescence).
Details: not given
It is filed as cell-based.
Regarding `O=C(O)c1cccnc1Nc1cccc(C(F)(F)F)c1` [Compound 837, Niflumic acid], the “Compound effect (percent receptor signaling in presence of test compound, relative lux units relative to the SCH23390 control)” value is 90.

With `CS(=O)(=O)Nc1ccc([N+](=O)[O-])cc1Oc1ccccc1` [Compound 838, Nimesulide], the “Compound effect (percent receptor signaling in presence of test compound, relative lux units relative to the SCH23390 control)” value is given as 88. Consider `O=C(CCNNC(=O)c1ccncc1)NCc1ccccc1` [Compound 839, Nialamide], for which the “Compound effect (percent receptor signaling in presence of test compound, relative lux units relative to the SCH23390 control)” value came to 87.

As for `CN1Cc2c(N)cccc2C(c2ccccc2)C1` (centres unmarked) [Compound 840, Nomifensine maleate], the “Compound effect (percent receptor signaling in presence of test compound, relative lux units relative to the SCH23390 control)” value is 42. Regarding `Cl.Cl.Oc1ccc2c3c1O[C@H]1c4[nH]c5c(c4C[C@@]4(O)[C@@H](C2)N(CC2CC2)CC[C@]314)C[C@@]1(O)[C@H]2Cc3ccc(O)c4c3[C@@]1(CCN2CC1CC1)[C@H]5O4` [Compound 841, nor-Binaltorphimine dihydrochloride], the “Compound effect (percent receptor signaling in presence of test compound, relative lux units relative to the SCH23390 control)” value came to 98.

Regarding `CN(C)C(=O)Oc1cccc([N+](C)(C)C)c1` [Compound 842, Neostigmine bromide], the “Compound effect (percent receptor signaling in presence of test compound, relative lux units relative to the SCH23390 control)” value was determined as 100. Turning to `CC1(C)CCC(NC(=O)[C@@H](N)CCC(=O)O)CC1` [Compound 843, CR 2249], the “Compound effect (percent receptor signaling in presence of test compound, relative lux units relative to the SCH23390 control)” value was found to be 92. Turning to `O=[N+]([O-])c1ccc(CSc2ncnc3c2ncn3[C@@H]2O[C@H](CO)[C@@H](O)[C@H]2O)cc1` [Compound 844, S-(4-Nitrobenzyl)-6-thioinosine], the “Compound effect (percent receptor signaling in presence of test compound, relative lux units relative to the SCH23390 control)” value came out at 93. As for `O=C1CC[C@@]2(O)[C@H]3Cc4ccc(O)c5c4[C@@]2(CCN3CC2CC2)[C@H]1O5` [Compound 845, Naltrexone hydrochloride], the “Compound effect (percent receptor signaling in presence of test compound, relative lux units relative to the SCH23390 control)” value worked out at 101.

With `N[C@@H](CCC(=O)N[C@@H](CSN=O)C(=O)NCC(=O)O)C(=O)O` [Compound 850, S-Nitrosoglutathione], the “Compound effect (percent receptor signaling in presence of test compound, relative lux units relative to the SCH23390 control)” value was 100. Regarding `O=C(O)/C=C1\CCCc2ccccc2C1O` (centres unmarked) [Compound 851, NCS-382], the “Compound effect (percent receptor signaling in presence of test compound, relative lux units relative to the SCH23390 control)” value came out at 97. For the molecule `CCn1cc(C(=O)[O-])c(=O)c2ccc(C)nc21.[Na+]` [Compound 852, Nalidixic acid sodium], the “Compound effect (percent receptor signaling in presence of test compound, relative lux units relative to the SCH23390 control)” value turned out to be 99. On to `Oc1ccc2c3c1O[C@H]1[C@@H](O)CC[C@@]4(O)[C@@H](C2)N(CC2CCC2)CC[C@]314` [Compound 853, Nalbuphine hydrochloride], for which the “Compound effect (percent receptor signaling in presence of test compound, relative lux units relative to the SCH23390 control)” value is on record as 96. Turning to `O=C(O)c1cc([N+](=O)[O-])ccc1NCCCc1ccccc1` [Compound 854, 5-Nitro-2-(3-phenylpropylamino)benzoic acid], the “Compound effect (percent receptor signaling in presence of test compound, relative lux units relative to the SCH23390 control)” value was 99. With `CN1CCC[C@H]1c1cccnc1.O=C(O)C(O)C(O)C(=O)O.O=C(O)C(O)C(O)C(=O)O` [Compound 857, (-)-Nicotine hydrogen tartrate salt], the “Compound effect (percent receptor signaling in presence of test compound, relative lux units relative to the SCH23390 control)” value came out at 92.

For the molecule `N=C(NCCC[C@H](N)C(=O)O)N[N+](=O)[O-]` [Compound 858, NG-Nitro-L-arginine], the “Compound effect (percent receptor signaling in presence of test compound, relative lux units relative to the SCH23390 control)” value was 95. Turning to `c1ccc2c(CC3=NCCN3)cccc2c1` [Compound 859, Naphazoline hydrochloride], the “Compound effect (percent receptor signaling in presence of test compound, relative lux units relative to the SCH23390 control)” value stood at 90. On the same count and under the same terms, the same measure for `O=C(O)CC[N+](=O)[O-]` [Compound 860, 3-Nitropropionic acid]: 91. Same read-out and setting: then `CNCCC=C1c2ccccc2CCc2ccccc21` [Compound 863, Nortriptyline hydrochloride], with 4. Regarding `COC(=O)C1=C(C)NC(C)=C(C(=O)OCCN(C)Cc2ccccc2)C1c1cccc([N+](=O)[O-])c1` (centres unmarked) [Compound 865, Nicardipine hydrochloride], the “Compound effect (percent receptor signaling in presence of test compound, relative lux units relative to the SCH23390 control)” value was found to be 76. The same measure, in the same setting: then `COC(=O)C1=C(C)NC(C)=C(C(=O)OC)C1c1ccccc1[N+](=O)[O-]` [Compound 866, Nifedipine], with 78; and `C=CCN1CC[C@]23c4c5ccc(O)c4O[C@H]2C(=O)CC[C@@]3(O)[C@H]1C5` [Compound 867, Naloxone hydrochloride], with 75; and `O=[N+]([O-])c1cccc2cn[nH]c12` [Compound 868, 7-Nitroindazole], with 78.

As to `C[N+](C)(C)CCC(=O)c1cccc2ccccc12.[I-]` [Compound 870, 2-(alpha-Naphthoyl)ethyltrimethylammonium iodide], the “Compound effect (percent receptor signaling in presence of test compound, relative lux units relative to the SCH23390 control)” value is recorded as 74. Still for that read-out and setting: the same measure for `CC1(C)NC(=O)N(c2ccc([N+](=O)[O-])c(C(F)(F)F)c2)C1=O` [Compound 872, Nilutamide]: 93; for `O=C(Nc1cccc(C(=O)Nc2ccc(S(=O)(=O)O)c3cc(S(=O)(=O)O)cc(S(=O)(=O)O)c23)c1)Nc1cccc(C(=O)Nc2ccc(S(=O)(=O)O)c3cc(S(=O)(=O)O)cc(S(=O)(=O)O)c23)c1` [Compound 873, NF 023]: 94. Same read-out and setting: then `Cc1ncc(CNC(=O)N(CCCl)N=O)c(N)n1` [Compound 874, Nimustine hydrochloride], with 88; and `O=C1OC(=O)[C@H]2[C@@H]1[C@@H]1CC[C@H]2O1` [Compound 875, Norcantharidin], with 76; and `COc1ccc2c(c1OC)C(=O)O[C@@H]2[C@H]1c2c(cc3c(c2OC)OCO3)CCN1C.Cl` [Compound 876, Noscapine hydrchloride], with 78.

Turning to `CN1CCCC1c1cccnc1.Cc1ccc(C(=O)OC(C(=O)O)C(OC(=O)c2ccc(C)cc2)C(=O)O)cc1` (stereo not drawn) [Compound 877, (+)-Nicotine (+)-di-p-toluoyl tartrate], the “Compound effect (percent receptor signaling in presence of test compound, relative lux units relative to the SCH23390 control)” value came to 80. Turning to `Oc1ccc2c3c1O[C@H]1c4[nH]c5ccccc5c4C[C@@]4(O)[C@@H](C2)N(CC2CC2)CC[C@]314` [Compound 878, Naltrindole hydrochloride], the “Compound effect (percent receptor signaling in presence of test compound, relative lux units relative to the SCH23390 control)” value is on record as 81.

In the case of `CCOC(=O)C1=C(C)NC(C)=C(C(=O)OC)C1c1cccc([N+](=O)[O-])c1` (centres unmarked) [Compound 881, Nitrendipine], the “Compound effect (percent receptor signaling in presence of test compound, relative lux units relative to the SCH23390 control)” value is recorded as 103.

In the case of `COCCOC(=O)C1=C(C)NC(C)=C(C(=O)OC(C)C)C1c1cccc([N+](=O)[O-])c1` (centres unmarked) [Compound 882, Nimodipine], the “Compound effect (percent receptor signaling in presence of test compound, relative lux units relative to the SCH23390 control)” value was 102. As to `CNCCC(Oc1ccccc1OC)c1ccccc1` (centres unmarked) [Compound 883, Nisoxetine hydrochloride], the “Compound effect (percent receptor signaling in presence of test compound, relative lux units relative to the SCH23390 control)” value is 84.

The assay is the same for the next values; noted with them: 10 µM compound, 300 nM dopamine, 2 hr; hit = compound effect <20.
For `COc1ccccc1N1CCN(CCN(C(=O)c2ccc(F)cc2)c2ccccn2)CC1.Cl.Cl` [Compound 835, p-MPPF dihydrochloride], the “Compound effect (percent receptor signaling in presence of test compound, relative lux units relative to the SCH23390 control)” value is 81%. With `Br.COc1ccccc1N1CCN(CCCCN2C(=O)c3ccccc3C2=O)CC1` [Compound 848, NAN-190 hydrobromide], the “Compound effect (percent receptor signaling in presence of test compound, relative lux units relative to the SCH23390 control)” value turned out to be 42%. In the case of `O=C(Nc1cc(C(=O)Nc2ccc(S(=O)(=O)[O-])cc2S(=O)(=O)[O-])cc(C(=O)Nc2ccc(S(=O)(=O)[O-])cc2S(=O)(=O)[O-])c1)Nc1cc(C(=O)Nc2ccc(S(=O)(=O)[O-])cc2S(=O)(=O)[O-])cc(C(=O)Nc2ccc(S(=O)(=O)[O-])cc2S(=O)(=O)[O-])c1.[Na+].[Na+].[Na+].[Na+].[Na+].[Na+].[Na+].[Na+]` [Compound 855, NF449 octasodium salt], the “Compound effect (percent receptor signaling in presence of test compound, relative lux units relative to the SCH23390 control)” value amounted to 112%.

With `CC(Cc1ccc(O)c(O)c1)C(C)Cc1ccc(O)c(O)c1` (centres unmarked) [Compound 856, Nordihydroguaiaretic acid from Larrea divaricata (creosote bush)], the “Compound effect (percent receptor signaling in presence of test compound, relative lux units relative to the SCH23390 control)” value is recorded as 64%. Take `COC(=O)[C@@H](N)CCCN=C(N)N[N+](=O)[O-].Cl` [Compound 861, NG-Nitro-L-arginine methyl ester hydrochloride]: the “Compound effect (percent receptor signaling in presence of test compound, relative lux units relative to the SCH23390 control)” value was found to be 96%. On to `NC(=O)C1=CN([C@@H]2O[C@H](COP(=O)(O)OP(=O)(O)OC[C@H]3O[C@@H](n4cnc5c(N)ncnc54)[C@H](OP(=O)(O)O)[C@@H]3O)[C@@H](O)[C@H]2O)C=CC1` [Compound 864, NADPH tetrasodium], for which the “Compound effect (percent receptor signaling in presence of test compound, relative lux units relative to the SCH23390 control)” value is reported as 92%. On the same count and under the same terms, then `O=Nc1ccc2oc(=O)ccc2c1` [Compound 871, 6-Nitroso-1,2-benzopyrone], with 93%; and `Cl.O=C(CCCN1CCC2(CC1)C(=O)N(CCc1ccc(N=C=S)cc1)CN2c1ccccc1)c1ccc(F)cc1` [Compound 879, N-(p-Isothiocyanatophenethyl)spiperone hydrochloride], with 83%; and `Cl.O=C(O)C1=CCCN(CCON=C(c2ccccc2)c2ccccc2)C1` [Compound 880, NO-711 hydrochloride], with 81%.

The same assay, now with this note: read-out: % of the SCH23390 effect (percent inhibition of receptor response relative to the SCH23390 control).
Consider `CNCCC=C1c2ccccc2CCc2ccccc21` [Compound 863, Nortriptyline hydrochloride], for which the inhibition (in general, the relative decrease from the control value, in per cent) at 10 µM is 96%.
